≈ marks a conversion by molar mass, not a printed value.
How the values were obtained:
[1] = target: T1, Nuclear receptor ROR-gamma (Homo sapiens, UniProt P51449); test: Displacement of [3H]-Digoxin from recombinant human GST-fused RORgammat LBD after 1 to 4 hrs by scintillation counting method
T1 sequence (P51449 whole entry): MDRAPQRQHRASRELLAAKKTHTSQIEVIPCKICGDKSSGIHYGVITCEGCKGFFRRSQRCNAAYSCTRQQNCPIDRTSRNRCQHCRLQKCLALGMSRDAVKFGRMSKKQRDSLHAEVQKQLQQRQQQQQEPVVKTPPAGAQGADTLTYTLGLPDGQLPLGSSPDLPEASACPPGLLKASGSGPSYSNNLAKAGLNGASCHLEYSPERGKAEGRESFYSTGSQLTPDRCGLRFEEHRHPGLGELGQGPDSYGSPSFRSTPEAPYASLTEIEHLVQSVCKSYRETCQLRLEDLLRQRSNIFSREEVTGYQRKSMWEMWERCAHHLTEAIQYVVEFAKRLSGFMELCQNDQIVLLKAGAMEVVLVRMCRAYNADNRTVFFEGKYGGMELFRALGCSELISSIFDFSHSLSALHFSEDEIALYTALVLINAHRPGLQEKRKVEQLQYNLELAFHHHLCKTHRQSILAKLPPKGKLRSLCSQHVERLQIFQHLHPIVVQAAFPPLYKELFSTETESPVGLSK

[2] = Solubility of the compound in KH2PO4/Na2HPO4 buffer at pH 6.8 by shake-flask method; format: physicochemical
[3] = target: T2, Nuclear receptor ROR-alpha (Homo sapiens, UniProt P35398); test: Displacement of [3H]T0901317 from recombinant human GST-fused RORalpha LBD after 1 to 4 hrs by microbeta scintillation counting method
T2 sequence (P35398 whole entry): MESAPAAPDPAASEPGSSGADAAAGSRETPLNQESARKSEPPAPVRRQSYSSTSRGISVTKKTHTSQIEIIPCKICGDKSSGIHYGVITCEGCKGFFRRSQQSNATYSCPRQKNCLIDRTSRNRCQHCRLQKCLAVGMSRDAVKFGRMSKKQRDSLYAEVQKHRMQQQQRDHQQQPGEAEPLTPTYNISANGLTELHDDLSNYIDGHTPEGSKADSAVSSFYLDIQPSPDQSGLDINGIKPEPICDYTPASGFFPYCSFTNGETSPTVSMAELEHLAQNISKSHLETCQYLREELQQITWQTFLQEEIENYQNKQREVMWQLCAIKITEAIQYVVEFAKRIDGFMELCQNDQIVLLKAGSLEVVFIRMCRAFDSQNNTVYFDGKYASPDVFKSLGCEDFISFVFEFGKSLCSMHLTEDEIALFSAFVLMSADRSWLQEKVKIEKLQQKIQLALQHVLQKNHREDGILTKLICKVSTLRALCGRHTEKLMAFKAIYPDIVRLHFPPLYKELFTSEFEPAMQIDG

[4] = target: T3, Nuclear receptor ROR-beta (Homo sapiens, UniProt Q92753); test: Transrepression of recombinant human GAL4-DBD fused RORbeta LBD expressed in HEK293 cells after 20 hrs by luciferase reporter gene assay; format: cell-based
T3 sequence (Q92753 whole entry): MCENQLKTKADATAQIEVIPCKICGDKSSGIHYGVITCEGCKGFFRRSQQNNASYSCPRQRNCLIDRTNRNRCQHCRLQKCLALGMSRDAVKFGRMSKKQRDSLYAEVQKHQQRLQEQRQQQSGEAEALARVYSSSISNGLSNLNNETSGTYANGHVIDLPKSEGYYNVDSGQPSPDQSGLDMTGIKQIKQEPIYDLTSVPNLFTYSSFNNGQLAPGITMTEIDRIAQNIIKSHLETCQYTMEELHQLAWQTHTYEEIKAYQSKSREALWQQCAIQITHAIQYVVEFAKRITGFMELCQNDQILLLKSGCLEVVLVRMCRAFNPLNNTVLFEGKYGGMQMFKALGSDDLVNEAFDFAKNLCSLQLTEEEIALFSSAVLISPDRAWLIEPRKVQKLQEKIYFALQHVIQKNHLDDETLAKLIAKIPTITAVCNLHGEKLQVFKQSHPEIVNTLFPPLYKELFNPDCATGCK

[5] = Total clearance in rat at 0.5 mg/kg, iv; format: ADME, organism-based; details: in vivo
[6] = Half life in rat at 0.5 mg/kg, iv; format: ADME, organism-based; details: in vivo
[7] = Volume of distribution at steady state in rat at 0.5 mg/kg, iv; format: ADME, organism-based; details: in vivo, read-out: Vdss
[8] = AUC in rat at 1 mg/kg, po; format: ADME, organism-based; details: in vivo
[9] = Tmax in rat at 1 mg/kg, po; format: ADME, organism-based; details: in vivo
[10] = Oral bioavailability in rat at 1 mg/kg; format: ADME, organism-based; details: in vivo
Mus musculus [11] = test: In-vivo transrepression of RORgammat in po dosed mouse assessed as inhibition of IL23-stimulated IL17 production administered 30 mins before and 6 hrs after IL-23 injection in skin intradermally measured after 24 hrs by ELISA; format: functional, organism-based
Mus musculus [12] = test: In-vivo transrepression of RORgammat in mouse assessed as inhibition of IL23-stimulated IL17 production at 30 mg/kg, po administered 30 mins before and 6 hrs after IL-23 injection in skin intradermally measured after 24 hrs by ELISA relative to control; format: functional
Mus musculus [13] = test: In-vivo transrepression of RORgammat in mouse assessed as inhibition of IL23-stimulated IL17 production at 100 mg/kg, po administered 30 mins before and 6 hrs after IL-23 injection in skin intradermally measured after 24 hrs by ELISA relative to control; format: functional
[14] = AUC in mouse at 30 mg/kg, po; format: ADME, organism-based; details: in vivo
[15] = AUC in mouse at 100 mg/kg, po; format: ADME, organism-based; details: in vivo
[16] = Cmax in mouse at 30 mg/kg, po; format: ADME, organism-based; parameters: dose 30 mg/kg, route oral; details: in vivo
[17] = Cmax in mouse at 100 mg/kg, po; format: ADME, organism-based; parameters: dose 100 mg/kg, route oral; details: in vivo
[18] = Tmax in mouse at 30 mg/kg, po; format: ADME, organism-based; details: in vivo
[19] = Tmax in mouse at 100 mg/kg, po; format: ADME, organism-based; details: in vivo

IC50 [1] | solubility thermodynamic [2] | IC50 [3] | IC50 [4] | clearance [5] | half-life [6] | Vd [7] | AUC [8] | Tmax [9] | bioavailability [10] | AUC [14] | AUC [15] | Cmax [16] | Cmax [17] | Tmax [18] | Tmax [19] | SMILES | inhibition (Mus musculus [11]) | inhibition in vivo at 30 mg/kg (Mus musculus [12]) | inhibition in vivo at 100 mg/kg (Mus musculus [13])
< 0.03 µM | 9 µM (≈ 4.58 µg/mL) | > 10 µM | > 10 µM | 15 mL/min/kg | 2.9 h | 3.3 L/kg | 218 ng·h/mL | 1 h | 19.6% | 4740 ng·h/mL | 23000 ng·h/mL | 2700 ng/mL | 8450 ng/mL | 0.5 h | 0.5 h | CCS(=O)(=O)c1ccc(CC(=O)Nc2ccc(C(C)(C)C(=O)Nc3cc(C#N)ccn3)c(F)c2)cc1 | Dose-dependent effect | 22% | 38%
< 0.03 µM | 16 µM (≈ 8.01 µg/mL) | > 10 µM | > 10 µM | 8.45 mL/min/kg | 2.5 h | 1.7 L/kg | 786 ng·h/mL | 2.5 h | 39.9% | – | – | – | – | – | – | CCS(=O)(=O)c1ccc(CC(=O)Nc2ccc(C(C)(C)C(=O)Nc3ccc(F)cc3)c(F)c2)cc1 | – | – | –
< 0.03 µM | 25 µM (≈ 13 µg/mL) | > 10 µM | > 10 µM | 4.33 mL/min/kg | 3.2 h | 1.1 L/kg | 2110 ng·h/mL | 4 h | 54.5% | 43500 ng·h/mL | 96300 ng·h/mL | 8350 ng/mL | 17800 ng/mL | 1.5 h | 0.8 h | CCS(=O)(=O)c1ccc(CC(=O)Nc2ccc(C(C)(C)C(=O)Nc3ccc(F)cc3F)c(F)c2)cc1 | Dose-dependent effect | 41% | 63%
